From ChEMBL document CHEMBL1201862, “PubChem BioAssay data set” (2004)
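Tested at 5 concentrations; 48 h exposure; 96-well plates; endpoints linearly interpolated, else capped at highest concentration. GI50: concentration for 50% inhibition of growth.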 The source made the active and inactive calls. Rule as the data show it: active = GI50 up to about 1.1 µM and inactive = higher.

Assays:
Test in all cases: growth of human tumour cells (NCI), 48 h
HOP-62 = system: HOP-62
Hs-578T = system: Hs-578T
SK-MEL-5 = system: SK-MEL-5
SK-OV-3 = system: SK-OV-3
KM12 = system: KM12
OVCAR-8 = system: OVCAR-8
CCRF-CEM = system: CCRF-CEM
NCI-H23 = system: NCI-H23
M14 = system: M14
NCI-H226 = system: NCI-H226
RPMI-8226 = system: RPMI-8226
SK-MEL-28 = system: SK-MEL-28
SF-268 = system: SF-268
Malme-3M = system: Malme-3M
PC-3 = system: PC-3
EKVX = system: EKVX
ACHN = system: ACHN
MDA-MB-231 = system: MDA-MB-231
T47D = system: T47D
HCC 2998 = system: HCC 2998

Row | Structure (SMILES) | GI50 (HOP-62) | GI50 (Hs-578T) | GI50 (SK-MEL-5) | GI50 (SK-OV-3) | GI50 (KM12) | GI50 (OVCAR-8) | GI50 (CCRF-CEM) | GI50 (NCI-H23) | GI50 (M14) | GI50 (NCI-H226) | GI50 (RPMI-8226) | GI50 (SK-MEL-28) | GI50 (SF-268) | GI50 (Malme-3M) | GI50 (PC-3) | GI50 (EKVX) | GI50 (ACHN) | GI50 (MDA-MB-231) | GI50 (T47D) | GI50 (HCC 2998)
1 | COC(=O)[C@@H]1Cc2ccc(OC)c(c2)OCCC(=O)N1 | > 100 µM (inactive) | > 100 µM (inactive) | > 100 µM (inactive) | > 100 µM (inactive) | > 100 µM (inactive) | > 100 µM (inactive) | > 100 µM (inactive) | > 100 µM (inactive) | > 100 µM (inactive) | > 100 µM (inactive) | > 100 µM (inactive) | > 100 µM (inactive) | > 100 µM (inactive) | > 100 µM (inactive) | > 100 µM (inactive) | > 100 µM (inactive) | > 100 µM (inactive) | > 100 µM (inactive) | > 100 µM (inactive) | > 100 µM (inactive)
2 | CCOC(=O)CC(=O)Nc1cccc2sc3ncccc3c(=O)c12 | 33 µM (inactive) | 19.1 µM (inactive) | 5.37 µM (inactive) | 22.4 µM (inactive) | 77.4 µM (inactive) | 52.4 µM (inactive) | 10.8 µM (inactive) | 32 µM (inactive) | 87.1 µM (inactive) | 27.9 µM (inactive) | 35.6 µM (inactive) | 47.8 µM (inactive) | 36.2 µM (inactive) | 54.6 µM (inactive) | 5.81 µM (inactive) | 65.8 µM (inactive) | 33.3 µM (inactive) | 60.8 µM (inactive) | 3.95 µM (inactive) | 25.9 µM (inactive)
3 | CC(=O)Nc1nc(Cl)cc(NCC2(CO)CCC2)n1 | > 100 µM (inactive) | > 100 µM (inactive) | > 100 µM (inactive) | > 100 µM (inactive) | > 100 µM (inactive) | > 100 µM (inactive) | > 100 µM (inactive) | > 100 µM (inactive) | > 100 µM (inactive) | > 100 µM (inactive) | > 100 µM (inactive) | > 100 µM (inactive) | > 100 µM (inactive) | > 100 µM (inactive) | > 100 µM (inactive) | > 100 µM (inactive) | > 100 µM (inactive) | > 100 µM (inactive) | > 100 µM (inactive) | > 100 µM (inactive)
4 | O=[N+]([O-])c1ccc(-c2nn3c(C45CC6CC(CC(C6)C4)C5)nnc3s2)c(Cl)c1 | > 100 µM (inactive) | > 100 µM (inactive) | > 100 µM (inactive) | > 100 µM (inactive) | > 100 µM (inactive) | > 100 µM (inactive) | > 100 µM (inactive) | > 100 µM (inactive) | > 100 µM (inactive) | > 100 µM (inactive) | > 100 µM (inactive) | > 100 µM (inactive) | > 100 µM (inactive) | > 100 µM (inactive) | > 100 µM (inactive) | > 100 µM (inactive) | > 100 µM (inactive) | > 100 µM (inactive) | > 100 µM (inactive) | > 100 µM (inactive)
5 | O=C1N/C(=N/N=C/C(O)C(O)C(O)C(O)CO)N/C1=C\c1c[nH]c2ccccc12 (stereo not given) | > 100 µM (inactive) | > 100 µM (inactive) | > 100 µM (inactive) | > 100 µM (inactive) | 52.4 µM (inactive) | > 100 µM (inactive) | 39.1 µM (inactive) | > 100 µM (inactive) | > 100 µM (inactive) | > 100 µM (inactive) | 89.7 µM (inactive) | > 100 µM (inactive) | > 100 µM (inactive) | > 100 µM (inactive) | 20.3 µM (inactive) | 34.6 µM (inactive) | > 100 µM (inactive) | 34.2 µM (inactive) | 97.7 µM (inactive) | > 100 µM (inactive)
6 | CC(C)=CCCC(C)CCOS(=O)C(F)(F)F (stereo not given) | 70.1 µM (inactive) | 1.16 µM (inactive) | 15.8 µM (inactive) | 22.1 µM (inactive) | 88.7 µM (inactive) | 6.78 µM (inactive) | 4.29 µM (inactive) | 2.58 µM (inactive) | 1.35 µM (inactive) | 20 µM (inactive) | 29.4 µM (inactive) | 11 µM (inactive) | 17.7 µM (inactive) | 3.15 µM (inactive) | 18 µM (inactive) | 10.4 µM (inactive) | 11.4 µM (inactive) | 16.6 µM (inactive) | 43.7 µM (inactive) | 13.2 µM (inactive)
7 | O=c1ccs[nH]1 | 17 µM (inactive) | 22 µM (inactive) | 5.78 µM (inactive) | 26.3 µM (inactive) | 26.7 µM (inactive) | 12.7 µM (inactive) | 1.56 µM (inactive) | 3.8 µM (inactive) | 9.89 µM (inactive) | 51.1 µM (inactive) | 2.7 µM (inactive) | 25.1 µM (inactive) | 14.2 µM (inactive) | 8.91 µM (inactive) | 12.9 µM (inactive) | 3.37 µM (inactive) | 7.05 µM (inactive) | 14.7 µM (inactive) | 3.81 µM (inactive) | 3.97 µM (inactive)
8 | C[C@@H]1CCC2[C@@H](C)[C@@H](OCCO[C@H]3OC4O[C@@]5(C)CCC6[C@H](C)CCC([C@H]3C)[C@@]46OO5)OC3O[C@@]4(C)CCC1[C@]32OO4 (stereo not given in full) | 1.34 µM (inactive) | 0.211 µM (active) | 0.301 µM (active) | 0.577 µM (active) | 0.056 µM (active) | 0.0982 µM (active) | 0.0682 µM (active) | 0.115 µM (active) | 0.379 µM (active) | 0.289 µM (active) | < 0.01 µM (active) | 2.86 µM (inactive) | 0.233 µM (active) | 0.182 µM (active) | 0.0174 µM (active) | 1.48 µM (inactive) | 0.154 µM (active) | 2.21 µM (inactive) | 0.0263 µM (active) | 6.92 µM (inactive)
